The subject of one series is T1, MeLACS.
T1 construct: full-length ORF, His-tagged (pET28b, BamHI/SalI), E. coli Rosetta 2 (DE3), Ni-NTA
Kind of series: coupled myokinase/pyruvate kinase/lactate dehydrogenase assay, NADH at […] nm. As to conditions: 0.1 M Tris-HCl pH 7.5, 30 °C, 5 mM ATP, 0.5 mM CoA, 10 mM MgCl2, 2 mM DTT; fatty acid 0-1 mM from stock in 5% Triton X-100. The format is biochemical, Mesotaenium endlicherianum.

The subject of the next series is T2, MvLACS.
T2 construct: full-length ORF, His-tagged (pET28b, BamHI/SalI), E. coli Rosetta 2 (DE3), Ni-NTA
The series is described as above. In kind it is biochemical, Mesostigma viride. The conditions noted are these: 0.1 M Tris-HCl pH 7.5, 30 °C, 5 mM ATP, 0.5 mM CoA, 10 mM MgCl2, 2 mM DTT; fatty acid 0-1 mM from stock in 5% Triton X-100.

For the next series, the target named is T3, SlLACS2 (Solanum lycopersicum, UniProt Z9EVN9B4R8).
T3 construct: full-length ORF, His-tagged (pET28b, BamHI/SalI), E. coli Rosetta 2 (DE3), Ni-NTA
T3 sequence (Z9EVN9B4R8 1-659): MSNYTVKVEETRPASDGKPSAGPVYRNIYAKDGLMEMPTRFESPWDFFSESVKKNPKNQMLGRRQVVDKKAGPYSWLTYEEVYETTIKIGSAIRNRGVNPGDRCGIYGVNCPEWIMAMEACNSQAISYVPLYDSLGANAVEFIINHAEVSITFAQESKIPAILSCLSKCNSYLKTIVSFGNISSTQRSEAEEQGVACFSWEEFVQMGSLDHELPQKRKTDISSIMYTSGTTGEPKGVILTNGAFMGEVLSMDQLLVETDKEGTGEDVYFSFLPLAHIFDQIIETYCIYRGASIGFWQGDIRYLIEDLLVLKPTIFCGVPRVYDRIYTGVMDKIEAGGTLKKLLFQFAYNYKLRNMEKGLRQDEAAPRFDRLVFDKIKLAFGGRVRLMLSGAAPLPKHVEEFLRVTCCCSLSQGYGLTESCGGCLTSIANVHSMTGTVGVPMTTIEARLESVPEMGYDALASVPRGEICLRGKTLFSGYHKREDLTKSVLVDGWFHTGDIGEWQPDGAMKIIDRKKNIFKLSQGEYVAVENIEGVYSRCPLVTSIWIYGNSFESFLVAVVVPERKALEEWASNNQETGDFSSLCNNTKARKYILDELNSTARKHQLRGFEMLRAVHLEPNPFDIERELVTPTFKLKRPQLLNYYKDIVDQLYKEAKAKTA
Described as above. The conditions noted are these: 0.1 M Tris-HCl pH 7.5, 30 °C, 5 mM ATP, 0.5 mM CoA, 10 mM MgCl2, 2 mM DTT; fatty acid 0-1 mM from stock in 5% Triton X-100. The format is biochemical.

Substrate in series [1]: CCCCCCCCCCCCCCCC(=O)O
Briefly: purified protein. The format is biochemical, Solanum lycopersicum. The conditions noted are these: 0.1 M Tris-HCl pH 7.5, 30 °C, 5 mM ATP, 0.5 mM CoA, 10 mM MgCl2, 2 mM DTT, fatty acid 0-1 mM from stock in 5% Triton X-100.

Substrate in series [2]: CCCCCCCCCCCCCCCCCC(=O)O
Briefly: purified protein. The conditions noted are these: 0.1 M Tris-HCl pH 7.5, 30 °C, 5 mM ATP, 0.5 mM CoA, 10 mM MgCl2, 2 mM DTT, fatty acid 0-1 mM from stock in 5% Triton X-100. In kind it is biochemical, Solanum lycopersicum.

The Km is the concentration of substrate that gives half-maximal velocity. Take `CCCCCCCCCCCCCCCC(=O)O` [palmitate (C16:0)]: the values for the Michaelis-Menten constant (Km) with MeLACS, in the series on MvLACS and on SlLACS2 were ~180 µM, ~32 µM and ~7 µM, respectively.

On to `CCCCCCCCCCCCCCCCCC(=O)O` [sterate (C18:0)], for which the Km is ~166 µM in the series on MeLACS, ~40 µM with MvLACS and ~6 µM on SlLACS2.

B1: SlLACS1 (Solanum lycopersicum) (protein)
chain: MSMNKFGLKVEEGKEGKNGEPSIGPVYRNPIAKNGFPSADPDLSTAWQLFRSAVEKYPGNRMLGWRDFKDGKWGPYNWKTYKEAYEETLQTGSALRAHGIEPGARIGIYGANCPQWIVAMEACSAHSLICVPLYDTLGSGAVDFIIEHAEIDIVFVQDKKVKELLNAECTHAKRLKLIVCFTLLQQEEKDKAVSMNIKPYSWNEFLNMGKENPSEPSPPQPLDICTIMYTSGTSGEPKGVILTHENMTASVTGVDHFMEEFEDKMTVDDVYISFLPLAHILDRMIEEFFFHRGASVGYFHGNINEIQEDMMELKPTFLAGVPRVYEKVHEGVLKALEELNPFRRHMFHVLYNFKLKWMNLGYKQKYASRLADLLAFRKVKNRLGGRIRLIVSGGAPLSTEVEEFLRVTSCGFVLQGYGLTETCGLATIGHPDEMCMLGTVGPPFVFTEVRLEEVPEMGYDPLADPSRGEICVRGRTTFTGYYKNPELTREAIKDGWFHTGDIGEMMPNGVVKVIDRKKNVIKLSQGEYVALEYLEKVYAIAPIVEDIWVYGDSFKSMLIAVVAPHEGNTKKWADKNGHKGSITELCSLQDLNQYVLLELKSAAERNKLRGFENIKGVILEPQPFEFDKELVTATMKKRRERLLKRYKLEIDDLYKRLNAAAKR
notes: full-length ORF, His-tagged (pET28b, BamHI/SalI), E. coli Rosetta 2 (DE3), Ni-NTA
Broadly, the kcat is the maximal rate divided by the concentration of active sites. In the case of B1, in “purified protein [1]”, the Km came to 42.4 ± 3.8 µM and the kcat is 0.102 ± 0.01 s⁻¹. Also, in “purified protein [2]”, the Km was 9.6 ± 1.4 µM and the kcat was 0.08 ± 0.0033 s⁻¹.

These data come from paper PMC12247511, “Evolutionary diversification of acyl-CoA synthetases underpins hydrophobic barrier formation across diverse tomato tissues and beyond” (Horticulture Research, 2025).
